Experimental data as given in paper PMC8659060, “Neuroprotective Potential of Synthetic Mono-Carbonyl Curcumin Analogs Assessed by Molecular Docking Studies” (Molecules, 2021).
Like-named read-outs stand apart in the source and are kept apart here.

Columns and labels:
[1] = tested on: scopolamine-induced memory impairment in mice; assay: Novel object recognition test (NORT), scopolamine-induced memory impairment; type: in vivo, Balb/C mice; details: for % DI in exploring the novel object versus scopolamine-treated group (in words): long-term memory, donepezil 2 mg/kg; for % DI in exploring the novel object versus scopolamine-treated group (in words) / Exploration time for the novel object in the test phase (in words): h compounds 7.5 and 15 mg/kg; for % DI versus scopolamine-treated group (in words): 7.5 and 15 mg/kg p.o.; for Exploration time for the novel object in the test phase (in words): DZP 2 mg/kg
Method: (§1) Balb/C mice iwth a weight of (17–23 gm) were procured from the NIH (National Institute of Health), Islamabad, which were kept for breeding under favorable conditions in the animal house of the Pharmacy Department, Shaheed Benazir Bhutto University Sheringal Dir (Upper). Light/dark cycle of about 12 h each was maintained, with relative humidity of 50–55% at 22–25 °C. This work was conducted with approval from the Departmental Ethical Committee (SBBU/IEC-20-02) of the Scientific Procedure Issue-I of the University of Malakand in compliance with provision of the 2008 Animal Byelaws.
(§2) Mice were divided into thirteen groups with 6 mice in each group.
(§3) Group I. Normal control group (vehicle treated) received 10 mL/kg (i.p.) normal saline.
(§4) Group IV–XIII. Sample (curcumin analog)-treated groups. Synthesized curcumin analogs were administered in doses of 7.5 mg/kg and 15 mg/kg (p.o.), respectively.
(§5) The groups were kept for 7 days at various treatments doses.
The synthesized curcumin analogs were tested for possible memory enhancement potential by using novel object recognition test apparatus, which was designed using plexi glass with dimension of 40 cm × 40 cm × 30 cm. The mice, after acclimatization period, were allowed to move for 2–3 min one day before the test for habituation. In the two corners of the NORT apparatus, two identical objects were placed on the test day in the sample phase (T1), and the object exploration time was recorded. The objects were regarded as being explored when the mice touched the objects or directed their nose toward the object at a distance of less than 2 cm, […], the test phase (T2) was started, in which one of the familiar objects was replaced with a novel (new) object. Mice again freely explored the objects in similar manner to that in T1, and the exploration time for the novel (new) object and the familiar (F) object were noted separately. The DI (discrimination index) was measured using the following formula: DI=N−F/N+F

[2] = tested on: T1, BChE in the hippocampus region of mouse brain; type: in vivo; details: pretreatment, then scopolamine, n = 6
T1 construct: from tissue; host or cells: mouse brain hippocampus (supernatant of homogenate)
Method: as §5
(§6) The mice were sacrificed immediately after the behavioral study by cervical dislocation to provide quick and painless death to each animal before decapitation. Brain of each animal was excised in phosphate buffer saline (chilled) and incorporated into biochemical biomarker analysis.
(§7) Cholinesterase (AChE and BChE) levels were determined in the excised brain hippocampus using Ellman’s method with slight modification. Supernatant (0.4 mL), 0.1 M/L, pH 8 phosphate buffer (2.6 mL), and 100 µL of DTNB (5,5′-dithiobis-2-nitrobenzoic acid) and were added into cuvette and mixed. Spectrophotometer at 412 nm was run and absorbance was measured several times, then […] acetyl thiocholine iodide/butyrylthiocholine chloride was mixed into the reaction as substrate at an interval of 2 min, and variation in absorbance was noted and the changes in absorbance per min were recorded. The following formula was used for calculation of cholinesterase level: R = 5.74 × 10^−4 × A/CO where ‘R’ is the moles (rate) of substrate hydrolyzed/min/mg of protein, (A) is the change in absorbance/min, and ‘CO’ is concentration (20 mg/mL) of protein.

[3] = tested on: T2, AChE in the hippocampus region of mouse brain; type: in vivo; details: pretreatment, then scopolamine, n = 6
T2 construct: from tissue; host or cells: mouse brain hippocampus (supernatant of homogenate)
Method: as §5, §6, §7

[4] = tested on: scopolamine-induced amnesia in mice; assay: Elevated plus maze (EPM), scopolamine-induced amnesia; type: in vivo, Balb/C mice; details: then scopolamine 1 mg/kg i.p., mean ± SEM, n = 6
Method: as §1, §2, §3, §4, §5
The EPM consisted of two open arms and two closed arms with dimensions of 16 cm × 5 cm × 12 cm, and was made from two poly acrylic sheets and designed as a plus sign with a central platform with dimensions of 5 cm × 5 cm, which was elevated 25 cm from the floor on a wooden stand. Mice were placed in the open arm in such a position that their direction was facing away from the central platform; then, the transfer latency time (TLT) was noted when the mice moved to the closed arm with its four legs from the open arm and then returned to their home cage. […] The following formula was used for calculation of inflexion ratio (IR). IR=L0−L1/L0 where L1 = initial transfer latency (s) and L0 = retention transfer latency (s).

[5] = target: T3, BChE (Equus caballus, UniProt P81908); assay: biochemical; details: for inhibition at 62.5 µg/mL / inhibition at 125 µg/mL / inhibition at 250 µg/mL / inhibition at 500 µg/mL / inhibition at 1000 µg/mL: read-out: BChE percent enzyme inhibition, Mean ± SEM
T3 construct: obtaining AChE and BChE enzymes from electric eel and equine serum, respectively; from tissue; host or cells: equine serum
T3 sequence (P81908 whole entry): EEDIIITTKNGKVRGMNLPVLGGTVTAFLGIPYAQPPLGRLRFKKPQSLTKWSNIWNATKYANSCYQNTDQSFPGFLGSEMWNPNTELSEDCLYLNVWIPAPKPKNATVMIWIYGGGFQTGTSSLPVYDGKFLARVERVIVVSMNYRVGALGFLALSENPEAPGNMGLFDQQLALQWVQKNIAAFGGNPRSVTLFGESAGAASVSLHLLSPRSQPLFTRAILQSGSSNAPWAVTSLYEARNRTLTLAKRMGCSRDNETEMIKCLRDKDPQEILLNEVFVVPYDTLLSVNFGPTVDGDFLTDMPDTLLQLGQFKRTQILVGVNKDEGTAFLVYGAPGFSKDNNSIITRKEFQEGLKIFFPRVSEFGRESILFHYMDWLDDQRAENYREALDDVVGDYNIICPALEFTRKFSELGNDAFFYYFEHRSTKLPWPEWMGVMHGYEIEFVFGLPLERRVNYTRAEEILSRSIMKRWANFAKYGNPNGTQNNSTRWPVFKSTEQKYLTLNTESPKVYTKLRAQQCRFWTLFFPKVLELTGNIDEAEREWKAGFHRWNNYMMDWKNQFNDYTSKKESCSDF
Method: (§8) Evaluation of anticholinesterase activity of the synthesized compounds was performed according to Ellman’s method and was determined by obtaining AChE and BChE enzymes from electric eel and equine serum, respectively. DMSO was used for the dissolution of test samples (1 mg/mL), which were diluted in phosphate buffer (0.1 M) to concentrations from 1000 to 62.5 µg/mL. Phosphate buffer in 0.1 M, pH 8.0 was used for the dilution of 518 U/mg AChE and 7–16 U/mg BChE to obtain final concentrations of 0.03 U/mL and 0.01 U/mL for AChE and BChE, respectively. Substrate solutions of 0.5 mM ATchI, 0.2273 mM DTNB and 0.5 mM BTchI in distilled water were made and maintained separately in Eppendorf tubes at 8 °C in a refrigerator. The assay was started by adding 5 µL enzyme solution to a cuvette, then adding 205 µL test sample followed by 5 µL DTNB reagent. A 5 µL volume of substrate solution was added, and the solution mixture was maintained for 15 min in water bath at 30 °C. A spectrophotometer was used to measure absorbance at 412 nm at 30 °C with a reaction time of 4 min. […] The following formula was used for calculation of % enzyme inhibition.

[6] = target: T4, AChE (Electrophorus electricus, UniProt O42275); assay: biochemical; details: for inhibition at 62.5 µg/mL / inhibition at 125 µg/mL / inhibition at 250 µg/mL / inhibition at 500 µg/mL / inhibition at 1000 µg/mL: read-out: AChE percent enzyme inhibition, Mean ± SEM
T4 construct: obtaining AChE and BChE enzymes from electric eel and equine serum, respectively; from tissue; host or cells: electric eel
T4 sequence (O42275 24-633): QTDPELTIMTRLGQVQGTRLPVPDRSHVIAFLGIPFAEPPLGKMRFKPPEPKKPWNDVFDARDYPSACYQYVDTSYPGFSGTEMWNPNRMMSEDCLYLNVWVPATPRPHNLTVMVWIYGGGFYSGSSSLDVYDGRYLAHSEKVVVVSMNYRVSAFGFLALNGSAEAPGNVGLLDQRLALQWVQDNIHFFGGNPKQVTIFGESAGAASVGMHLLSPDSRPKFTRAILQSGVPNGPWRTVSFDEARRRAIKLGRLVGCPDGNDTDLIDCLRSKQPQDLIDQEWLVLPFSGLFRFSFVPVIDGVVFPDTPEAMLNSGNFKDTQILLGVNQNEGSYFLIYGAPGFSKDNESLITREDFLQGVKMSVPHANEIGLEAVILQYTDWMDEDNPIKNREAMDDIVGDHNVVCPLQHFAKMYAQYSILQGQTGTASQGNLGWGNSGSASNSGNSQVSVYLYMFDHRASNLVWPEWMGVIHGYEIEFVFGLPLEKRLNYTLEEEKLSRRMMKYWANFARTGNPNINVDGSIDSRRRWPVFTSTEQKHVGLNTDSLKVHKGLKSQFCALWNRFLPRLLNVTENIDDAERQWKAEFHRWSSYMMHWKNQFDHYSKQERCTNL
Method: as §8

[7] = Ellman's method, 1000 to 62.5 μg/mL, n = 3, read-out: BChEI (IC50) (converted)
[8] = Ellman's method, 1000 to 62.5 μg/mL, n = 3, read-out: AChEI (IC50) (converted)

Row | Structure (SMILES) | % DI in exploring the novel object versus scopolamine-treated group (in words) [1] | % DI versus scopolamine-treated group (in words) ([1]; short-term memory) | Reversal of scopolamine-increased hippocampus BChE level (in words) [2] | Reversal of scopolamine-increased hippocampus AChE level (in words) [3] | Retention (transfer latency time, TLT) ([4]; 7.5 mg/kg p.o. for 7 days) [s] | Retention (transfer latency time, TLT) ([4]; 15 mg/kg p.o. for 7 days) [s] | Exploration time for the novel object in the test phase (in words) ([1]; short-term memory) | inhibition at 62.5 µg/mL ([5]; 62.5 µg/mL) [%] | inhibition at 125 µg/mL ([5]; 125 µg/mL) [%] | inhibition at 250 µg/mL ([5]; 250 µg/mL) [%] | inhibition at 500 µg/mL ([5]; 500 µg/mL) [%] | inhibition at 1000 µg/mL ([5]; 1000 µg/mL) [%] | IC50 [5, 7] [µM] | inhibition at 62.5 µg/mL ([6]; 62.5 µg/mL) [%] | inhibition at 125 µg/mL ([6]; 125 µg/mL) [%] | inhibition at 250 µg/mL ([6]; 250 µg/mL) [%] | inhibition at 500 µg/mL ([6]; 500 µg/mL) [%] | inhibition at 1000 µg/mL ([6]; 1000 µg/mL) [%] | IC50 [6, 8] [µM] | further results
1 | O=C(/C=C/c1ccc([N+](=O)[O-])cc1)/C=C/c1ccc([N+](=O)[O-])cc1 [h5, (1E,4E)-1,5-bis(4-Nitrophenyl)penta-1,4-dien-3-one] | no promising results | no promising results | no promising results | no prominent | 34.71 ± 1.37 | 31.51 ± 1.54 |  |  |  |  |  |  |  |  |  |  |  |  |  | IC50 [5]: 3050 µM; inhibition at 62.5 µg/mL [5]: 16.2 ± 0.83%; inhibition at 125 µg/mL [5]: 20.3 ± 0.31%; inhibition at 250 µg/mL [5]: 32.73 ± 0.01%; inhibition at 500 µg/mL [5]: 43.51 ± 0.13%; inhibition at 1000 µg/mL [5]: 51.82 ± 0.16%; IC50 [6]: 1950 µM; inhibition at 62.5 µg/mL [6]: 26.45 ± 0.18%; inhibition at 125 µg/mL [6]: 35.51 ± 0.06%; inhibition at 250 µg/mL [6]: 41.27 ± 0.04%; inhibition at 500 µg/mL [6]: 47.33 ± 0.16%; inhibition at 1000 µg/mL [6]: 58.41 ± 0.13%
2 | COc1ccc2c3c1O[C@H]1C[C@@H](O)C=C[C@@]31CCN(C)C2 [Galanthamine, reference compound] |  |  |  |  |  |  |  |  |  |  |  |  |  |  |  |  |  |  |  | inhibition at 62.5 µg/mL [5]: 61.35 ± 0.18%; inhibition at 125 µg/mL [5]: 66.2 ± 0.15%; inhibition at 250 µg/mL [5]: 73.42 ± 0.11%; inhibition at 500 µg/mL [5]: 78.62 ± 0.17%
3 | COc1ccc(/C=C/C(=O)/C=C/c2ccc(OC)cc2)cc1 [h2, (1E,4E)-1,5-bis(4-Methoxyphenyl)penta-1,4-dien-3-one] | significant increase |  | significantly reversed | reversed | 31.51 ± 2.73 | 25.32 ± 2.42 | significantly more time exploring the novel object | 41.82 ± 0.18 | 48.61 ± 0.15 | 57.22 ± 0.01 | 64.38 ± 0.06 | 69.77 ± 0.03 | 503 | 46.88 ± 0.15 | 53.57 ± 0.17 | 61.21 ± 0.18 | 73.79 ± 0.12 | 76.23 ± 0.15 | 317 | 
4 | O=C(/C=C/c1ccc(Cl)cc1)/C=C/c1ccc(Cl)cc1 [h3, (1E,4E)-1,5-bis(4-Chlorophenyl)penta-1,4-dien-3-one] | significant increase |  | significantly reversed | reversed | 25.26 ± 2.51 | 21.27 ± 2.92 | significantly more time exploring the novel object | 49.25 ± 0.02 | 58.33 ± 0.13 | 62.41 ± 0.19 | 69.52 ± 0.12 | 78.72 ± 0.16 | 222 | 53.53 ± 0.12 | 62.44 ± 0.16 | 69.51 ± 0.13 | 77.25 ± 0.11 | 83.31 ± 0.13 | 96.9 | 
5 | CN(C)c1ccc(/C=C/C(=O)/C=C/c2ccc(N(C)C)cc2)cc1 [h4, (1E,4E)-1,5-bis(4-(Dimethylamino)phenyl)penta-1,4-dien-3-one] | no promising results | comparable values | no promising results | no prominent | 35.71 ± 1.13 | 30.42 ± 1.24 |  | 27.16 ± 0.11 | 35.33 ± 0.19 | 42.62 ± 0.12 | 49.51 ± 0.16 | 56.32 ± 0.18 | 1600 | 31.41 ± 0.13 | 39.45 ± 0.04 | 46.32 ± 0.15 | 58.16 ± 0.11 | 63.51 ± 0.17 | 920 | 
6 | COc1cc2c(cc1OC)C(=O)C(CC1CCN(Cc3ccccc3)CC1)C2 (stereo not drawn) [Donepezil, reference compound] | significant increase |  |  |  |  |  | significantly higher exploration times |  |  |  |  |  |  |  |  |  |  |  |  | Exploration time for the novel object ([1]; short-term memory, test phase, 2 mg/kg p.o. + scopolamine 1 mg/kg i.p.): 21.59 ± 2.44 s; Retention (transfer latency time, TLT) ([4]; 2 mg/kg p.o. for 7 days): 25.57 ± 1.93 s; Retention (transfer latency time, TLT) ([4]; 2 mg/kg p.o. for 7 days, listed as donepezil): 25.57 ± 1.93 s
7 | Cc1ccc(/C=C/C(=O)/C=C/c2ccc(C)cc2)cc1 [h1, (1E,4E)-1,5-Di-p-tolylpenta-1,4-dien-3-one] | significant increase | comparable values | no promising results | no prominent | 33.13 ± 2.16 | 26.18 ± 2.32 |  | 37.16 ± 0.12 | 46.25 ± 0.13 | 51.91 ± 0.14 | 56.42 ± 0.16 | 62.16 ± 0.04 | 927 | 45.63 ± 0.13 | 54.34 ± 0.17 | 58.12 ± 0.16 | 68.07 ± 0.18 | 79.67 ± 0.21 | 399 | 
